# From US12558352B2, “Use of malic enzyme 1 (ME1) in preparation of drug for preventing and treating pulmonary hypertension (PH)” (Institute of Basic Medical Sciences, CAMS, priority 2022, dated 2026)
# How the values were obtained:
# ME1 = molecular target: T1, ME1 (Mus musculus, UniProt P06801); experiment: Dose-finding: inhibition of ME1 enzymatic activity in lung tissue of normoxia mice after single intraperitoneal injection; assay type: in vivo; conditions: dose greater than or equal to 100 mg/kg (doses tested 1, 10, 100, 200, 500 mg/kg)
# T1 construct: from tissue; host or cells: mouse lung tissue (normoxia mice, lysate after intraperitoneal dosing)
# T1 sequence (P06801 1-572): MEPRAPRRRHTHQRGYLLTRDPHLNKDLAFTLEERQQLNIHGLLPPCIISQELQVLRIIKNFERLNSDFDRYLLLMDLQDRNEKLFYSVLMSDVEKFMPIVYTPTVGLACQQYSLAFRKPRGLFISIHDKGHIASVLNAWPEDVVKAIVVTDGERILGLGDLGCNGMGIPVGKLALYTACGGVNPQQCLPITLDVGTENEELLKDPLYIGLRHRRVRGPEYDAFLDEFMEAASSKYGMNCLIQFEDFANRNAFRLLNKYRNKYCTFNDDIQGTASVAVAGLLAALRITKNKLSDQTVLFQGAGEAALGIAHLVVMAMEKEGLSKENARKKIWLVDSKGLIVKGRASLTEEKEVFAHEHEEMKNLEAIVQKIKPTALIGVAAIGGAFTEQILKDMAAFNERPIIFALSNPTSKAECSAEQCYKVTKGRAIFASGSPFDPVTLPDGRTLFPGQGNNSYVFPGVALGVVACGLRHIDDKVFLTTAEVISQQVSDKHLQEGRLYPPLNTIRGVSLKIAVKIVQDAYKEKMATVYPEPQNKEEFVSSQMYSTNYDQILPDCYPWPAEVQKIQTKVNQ
# Procedure: Histone supernatants or mitochondrial extracts were used to detect ME1 enzymatic activity. (1) Liquid preparation: an ME1 reaction buffer (pH=7.4) was prepared from 67 mM triethanolamine and 5.0 mM manganese chloride. (2) Sample preparation: a protein lysate was centrifuged at 13,000 rpm for 15 min at 4° C. (3) Adding samples: a reaction system included ME1 reaction buffer+L-malic acid (3.3 mM)+β-NADP^+ (0.3 mM)+protein lysate, with a total volume of 150 μL. (4) Reading was done with a multi-functional microplate reader, at a reading temperature maintained at 37° C., and an absorbance value was monitored at a wavelength of 340 nm every 50 s for a total of 30 min. (5) The protein concentration was determined for standardization. (6) The change of absorbance per mg of protein per unit time was calculated. In the present disclosure, normoxia mice are intraperitoneally injected with ME1*, at single injection doses of 1, 10, 100, 200, and 500 mg/kg, respectively, to explore the inhibitory effect of ME1* on the enzymatic activity of ME1 in mouse lung tissues.
# SuHx-induced PH mice = experiment: Preventive treatment of SuHx-induced PH mice; assay type: in vivo, mouse; conditions: compared with vehicle
# Procedure: 8 to 10 week-old SPF-grade C57BL/6J male mice weighing 25 g to 30 g were fed in a hypoxia chamber (an oxygen concentration in the chamber was maintained at 10%) while receiving weekly subcutaneous injections of 20 mg/kg of SU5416 for 0 weeks (n=8), 1 week (n=8), 2 weeks (n=8), and 3 weeks (n=8). The mouse lung tissues were collected and assessed for RVSP and RVHI and analyzed for PAMT.
# The RVSP can be used to evaluate a pulmonary artery pressure (PAP) of the mouse, and the RVHI can reflect the right ventricular involvement and right ventricular hypertrophy of the mouse due to excessive PVR. The specific operation steps were as follows: (1) After anesthetized with 2% pentobarbital sodium (50 mg/kg by intraperitoneal injection), the mice were fixed on an operating board. (2) Power Lab was started and then connected to a pressure transducer. (3) The skin of the anterior chest wall of the mouse was cut with surgical scissors to clearly expose the position of manubrium sternum. (4) A 22-gauge needle was inserted into the right ventricle (RV) at 45° along an intersection point of the manubrium sternum and the left costal margin through the closed chest, and a position of the needle tip in the heart cavity was determined by the waveform; a stable RVSP waveform was saved and an RVSP measured value were recorded through Chart program. (5) The mice were sacrificed to obtain the heart; excess connective tissue and appendages in the heart were removed, and a free wall of the right ventricle was cut; the right ventricle, left ventricle, and interventricular septum (Left ventricular+septum, LV+S) were weighed to calculate RVHI=RV/LV+S.
# PAMT is used to analyze the morphological changes of pulmonary vessels. In the present disclosure, a primary antibody of α-smooth muscle actin (α-SMA), a surface marker of pulmonary vascular smooth muscle cells, was stained by immunohistochemistry, and then a percentage of PAMT was calculated to evaluate the pulmonary vascular remodeling of PH mice. […] After deparaffinized and antigen retrieval (a pH of citric acid buffer was 6.0), the section was incubated with a primary antibody against α-SMA at 4° C. overnight, and then incubated with a horseradish peroxidase-bound secondary antibody. After counterstained with hematoxylin, cell nuclei were rinsed with tap water and differentiated with 0.5% […], soaked in tap water for 15 min, routinely dehydrated, subjected to transparent treatment, sealed with glycerogelatin and photographed. Statistical analysis: pulmonary vessel thickness was measured with a diameter of (0-50) μm and (50-100) μm. At least 20 vessels with a diameter of (0-50) μm and at least 15 vessels with a diameter of (50-100) μm were assessed per mouse, and the PAMT percentage was calculated as: (outer circumference/2π-inner circumference/2π)/(outer circumference/2π)×100.
# Echocardiography was conducted using a Vevo 2100 ultrasound imaging platform to evaluate the dynamic changes of blood flow in the right heart of PH mice. (1) The mice were depilated to fully expose the skin on the chest wall. (2) The mice were placed on a constant-temperature heating plate at 37° C., anesthetized with 3.0% isoflurane through the nose and mouth, and the inhalation was continued with 1.5% isoflurane after the mice were anesthetized. (3) The mice were smeared with a small amount of coupling agent on their limbs and the limbs were fixed, and dynamic changes of the body temperature, heart rate, respiration rate, and electrocardiogram for mice were continuously recorded, while ensuring that the mice were in a resting state. (4) The ultrasound probe was placed, an appropriate amount of coupling agent was added, the pulmonary artery acceleration time (PAAT), pulmonary artery ejection time (PAET), and velocity-time integral were determined at a short-axis position, and then obtained frequency spectrum was saved and added with color ultrasound. […]
# [1] = Safety evaluation of preventive treatment (body weight, HE staining of organs); assay type: in vivo, mouse; conditions: 100 mg/kg intraperitoneally once a day
# Procedure: Male SPF-grade C57BL/6J mice aged 8 to 10 weeks with a body weight of 25 g to 30 g were randomly divided into the following 4 groups: • (1) Normoxia+vehicle control group: 6 mice were fed in a normoxia environment for 3 weeks; from the second week, the mice were intraperitoneally injected with vehicle (100 mg/kg) once a day, for a total of 14 injections. • (2) Normoxia+ME1* treatment group: 6 mice were fed in a normoxia environment for 3 weeks; from the second week, the mice were intraperitoneally injected with ME1* (100 mg/kg) once a day, for a total of 14 injections. • (3) SuHx modeling+vehicle control group: 10 mice were treated with SuHx for 3 weeks (SuHx modeling method was the same as above); from the second week, the mice were intraperitoneally injected with vehicle (100 mg/kg) once a day, for a total of 14 injections. • (4) SuHx modeling+ME1* treatment group: 10 mice were treated with SuHx for 3 weeks; from the second week, the mice were intraperitoneally injected with ME1* (100 mg/kg) once a day, for a total of 14 injections. […]
# [2] = 100 mg/kg intraperitoneally once a day, 14 injections
# [3] = echocardiography, 100 mg/kg intraperitoneally once a day
compound,measurement,setting,value
O=C1CC(N2CCN(c3ccc(O)cc3)CC2)C(=O)N1c1ccccc1 (stereo not drawn) [ME1*],enzymatic activity of ME1 in mouse lung tissue,ME1,significantly inhibited
same,progression of PH,"SuHx-induced PH mice; 100 mg/kg intraperitoneally once a day from second week, 14 injections",significantly slowed
same,RVHI (%),SuHx-induced PH mice; [2],significantly lower
same,RVSP,SuHx-induced PH mice; [2],significantly lower
same,PA AT/ET,SuHx-induced PH mice; [3],significantly higher
same,TAPSE,SuHx-induced PH mice; [3],significantly higher
same,PAMT percentage,"SuHx-induced PH mice; pulmonary artery diameters 0-50 μm and 50-100 μm, 100 mg/kg intraperitoneally once a day",significantly lower
same,"tissue and organ damage (HE staining of lung, heart, liver, spleen, kidney, small intestine)","[1]; after the treatment, 14 injections",no obvious tissue and organ damage
same,body weight of the mice,"[1]; weighed every week, compared with vehicle group",not significantly reduced
